Patent US20120264735A1 (priority 2009, published 2012)
pIC50: −log10 of the molar value.

Target: T1, c-Met kinase (recombinant c-Met) (Homo sapiens, UniProt P08581)
T1 construct: 0.27 nM recombinant c-Met
Test: In vitro kinase assay I (homogeneous time-resolved fluorescence tyrosine kinase assay)
Assay type: biochemical
Summary of the method: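 Biotinylated peptide (0.5 μM) phosphorylated by 0.2 nM recombinant c-Met with 50 μM MgATP, 60 min at room temperature, pH 7.4, 5% DMSO. EDTA stop; HTRF read with Eu-anti-phosphotyrosine antibody and streptavidin-APC. IC50 from 4-parameter logistic fit.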

T1 sequence (P08581 25-1390): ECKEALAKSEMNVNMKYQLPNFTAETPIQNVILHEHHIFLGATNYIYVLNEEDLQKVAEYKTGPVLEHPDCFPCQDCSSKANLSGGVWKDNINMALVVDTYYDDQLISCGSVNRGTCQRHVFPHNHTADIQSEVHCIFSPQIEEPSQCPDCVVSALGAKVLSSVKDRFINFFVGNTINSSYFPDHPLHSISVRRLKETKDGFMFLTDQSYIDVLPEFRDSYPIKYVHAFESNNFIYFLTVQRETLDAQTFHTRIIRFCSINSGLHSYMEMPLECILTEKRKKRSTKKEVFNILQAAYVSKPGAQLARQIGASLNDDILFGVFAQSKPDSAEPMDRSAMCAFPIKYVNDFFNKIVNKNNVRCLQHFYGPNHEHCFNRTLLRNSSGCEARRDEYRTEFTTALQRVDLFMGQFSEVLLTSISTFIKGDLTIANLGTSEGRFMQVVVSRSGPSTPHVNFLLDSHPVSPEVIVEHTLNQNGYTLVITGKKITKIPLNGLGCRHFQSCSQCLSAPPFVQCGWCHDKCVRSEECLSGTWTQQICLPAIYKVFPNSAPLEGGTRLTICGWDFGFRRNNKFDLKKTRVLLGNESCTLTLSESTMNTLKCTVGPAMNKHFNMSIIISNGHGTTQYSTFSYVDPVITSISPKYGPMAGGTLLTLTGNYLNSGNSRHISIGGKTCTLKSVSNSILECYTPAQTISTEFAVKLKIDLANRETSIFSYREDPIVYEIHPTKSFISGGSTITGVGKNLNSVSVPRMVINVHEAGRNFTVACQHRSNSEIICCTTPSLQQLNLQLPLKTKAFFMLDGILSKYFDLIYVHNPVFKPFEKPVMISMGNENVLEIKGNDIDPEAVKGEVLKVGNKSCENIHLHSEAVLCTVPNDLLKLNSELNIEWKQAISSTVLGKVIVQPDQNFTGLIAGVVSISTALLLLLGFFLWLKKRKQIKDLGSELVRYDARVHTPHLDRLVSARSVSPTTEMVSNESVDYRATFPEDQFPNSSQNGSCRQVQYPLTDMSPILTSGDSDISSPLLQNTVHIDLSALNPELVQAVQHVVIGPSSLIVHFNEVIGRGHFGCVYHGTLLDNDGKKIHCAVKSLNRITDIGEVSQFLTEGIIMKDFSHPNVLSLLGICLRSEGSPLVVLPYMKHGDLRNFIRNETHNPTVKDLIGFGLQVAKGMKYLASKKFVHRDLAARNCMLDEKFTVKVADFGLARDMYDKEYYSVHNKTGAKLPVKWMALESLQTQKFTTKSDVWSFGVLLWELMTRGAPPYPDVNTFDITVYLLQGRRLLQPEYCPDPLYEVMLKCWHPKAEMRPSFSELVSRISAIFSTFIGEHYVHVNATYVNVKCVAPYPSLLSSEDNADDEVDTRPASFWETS

Row | SMILES | pIC50
1 | CN1CCN(CCCOC(=O)Nc2cccc(Cc3nn(-c4cnn(C)c4)ccc3=O)c2)CC1 [Example 536, 3-(4-methylpiperazin-1-yl)propyl-(3-{[1-(1-methyl-1H-pyrazol-4-yl)-4-oxo-1,4-dihydropyridazin-3-yl]methyl}phenyl)carbamate] | > 7.00
2 | Cn1cc(-n2ccc(=O)c(Cc3cccc(NC(=O)OCCCN4CCOCC4)c3)n2)cn1 [Example 537, 3-morpholin-4-ylpropyl (3-{[1-(1-methyl-1H-pyrazol-4-yl)-4-oxo-1,4-dihydropyridazin-3-yl]methyl}phenyl)carbamate] | > 7.00
3 | Cn1cc(-n2ccc(=O)c(Cc3cccc(NC(=O)OCC4CCC4)c3)n2)cn1 [Example 538, cyclobutylmethyl (3-{[1-(1-methyl-1H-pyrazol-4-yl)-4-oxo-1,4-dihydropyridazin-3-yl]methyl}phenyl)carbamate] | > 7.00
4 | Cn1cc(-n2ccc(=O)c(Cc3cccc(NC(=O)OCC4CCCC4)c3)n2)cn1 [Example 539, cyclopentylmethyl (3-{[1-(1-methyl-1H-pyrazol-4-yl)-4-oxo-1,4-dihydropyridazin-3-yl]methyl}phenyl)carbamate] | > 7.00
5 | Cn1cc(-n2ccc(=O)c(Cc3cccc(NC(=O)OCC4CCCCC4)c3)n2)cn1 [Example 540, cyclohexylmethyl (3-{[1-(1-methyl-1H-pyrazol-4-yl)-4-oxo-1,4-dihydropyridazin-3-yl]methyl}phenyl)carbamate] | > 7.00
6 | Cn1cc(-n2ccc(=O)c(Cc3cccc(NC(=O)OCC4CCOCC4)c3)n2)cn1 [Example 541, tetrahydro-2H-pyran-4-ylmethyl (3-{[1-(1-methyl-1H-pyrazol-4-yl)-4-oxo-1,4-dihydropyridazin-3-yl]methyl}phenyl)carbamate] | > 7.00
7 | Cn1cc(-n2ccc(=O)c(Cc3cccc(NC(=O)OCC4(C)COC4)c3)n2)cn1 [Example 543, (3-methyloxetan-3-yl)methyl (3-{[1-(1-methyl-1H-pyrazol-4-yl)-4-oxo-1,4-dihydropyridazin-3-yl]methyl}phenyl)carbamate] | > 7.00
8 | Cn1cc(-n2ccc(=O)c(Cc3cccc(NC(=O)OCC(F)(F)F)c3)n2)cn1 [Example 544, 2,2,2-trifluoroethyl (3-{[1-(1-methyl-1H-pyrazol-4-yl)-4-oxo-1,4-dihydropyridazin-3-yl]methyl}phenyl)carbamate] | > 7.00
9 | CN(C)C(=O)CCOC(=O)Nc1cccc(Cc2nn(-c3cnn(C)c3)ccc2=O)c1 [Example 545, 3-(dimethylamino)-3-oxopropyl (3-{[1-(1-methyl-1H-pyrazol-4-yl)-4-oxo-1,4-dihydropyridazin-3-yl]methyl}phenyl)carbamate] | > 7.00
10 | CN(C)CCOC(=O)Nc1cccc(Cc2nn(-c3cc(F)c(F)c(F)c3)ccc2=O)c1 [Example 546, 2-(dimethylamino)ethyl (3-{[4-oxo-1-(3,4,5-trifluorophenyl)-1,4-dihydropyridazin-3-yl]methyl}phenyl)carbamate] | > 7.00
11 | O=C(Nc1cccc(Cc2nn(-c3cc(F)c(F)c(F)c3)ccc2=O)c1)OCCn1ccnc1 [Example 547, 2-(1H-imidazol-1-yl)ethyl (3-{[4-oxo-1-(3,4,5-trifluorophenyl)-1,4-dihydropyridazin-3-yl]methyl}phenyl)carbamate] | > 7.00
12 | O=C(Nc1cccc(Cc2nn(-c3cc(F)c(F)c(F)c3)ccc2=O)c1)OCCCn1cccc1 [Example 548, 3-(1H-pyrrol-1-yl)propyl (3-{[4-oxo-1-(3,4,5-trifluorophenyl)-1,4-dihydropyridazin-3-yl]methyl}phenyl)carbamate] | > 7.00
13 | O=C(Nc1cccc(Cc2nn(-c3cc(F)c(F)c(F)c3)ccc2=O)c1)OCCN1CCCC1=O [Example 549, 2-(2-oxopyrrolidin-1-yl)ethyl (3-{[4-oxo-1-(3,4,5-trifluorophenyl)-1,4-dihydropyridazin-3-yl]methyl}phenyl)carbamate] | > 7.00
14 | CN(CCOC(=O)Nc1cccc(Cc2nn(-c3cc(F)c(F)c(F)c3)ccc2=O)c1)c1ccccc1 [Example 550, 2-[methyl(phenyl)amino]ethyl (3-{[4-oxo-1-(3,4,5-trifluorophenyl)-1,4-dihydropyridazin-3-yl]methyl}phenyl)carbamate] | > 7.00
15 | O=C(Nc1cccc(Cc2nn(-c3cc(F)c(F)c(F)c3)ccc2=O)c1)OCCCN1CCCC1=O [Example 551, 3-(2-oxopyrrolidin-1-yl)propyl (3-{[4-oxo-1-(3,4,5-trifluorophenyl)-1,4-dihydropyridazin-3-yl]methyl}phenyl)carbamate] | > 7.00
16 | O=C(Nc1cccc(Cc2nn(-c3cc(F)c(F)c(F)c3)ccc2=O)c1)OCCn1cncn1 [Example 552, 2-(1H-1,2,4-triazol-1-yl)ethyl (3-{[4-oxo-1-(3,4,5-trifluorophenyl)-1,4-dihydropyridazin-3-yl]methyl}phenyl)carbamate] | > 7.00
17 | CC1CCN(CCCOC(=O)Nc2cccc(Cc3nn(-c4cc(F)c(F)c(F)c4)ccc3=O)c2)CC1 [Example 553, 3-(4-methylpiperidin-1-yl)propyl (3-{[4-oxo-1-(3,4,5-trifluorophenyl)-1,4-dihydropyridazin-3-yl]methyl}phenyl)carbamate] | > 7.00

Row | SMILES | pIC50
18 | O=C(Nc1cccc(Cc2nn(-c3cc(F)c(F)c(F)c3)ccc2=O)c1)OCCCN1CCCC1 [Example 554, 3-pyrrolidin-1-ylpropyl (3-{[4-oxo-1-(3,4,5-trifluorophenyl)-1,4-dihydropyridazin-3-yl]methyl}phenyl)carbamate] | > 7.00
19 | O=C(Nc1cccc(Cc2nn(-c3cc(F)c(F)c(F)c3)ccc2=O)c1)OCC1CCC1 [Example 555, cyclobutylmethyl (3-{[4-oxo-1-(3,4,5-trifluorophenyl)-1,4-dihydropyridazin-3-yl]methyl}phenyl)carbamate] | > 7.00
20 | O=C(Nc1cccc(Cc2nn(-c3cc(F)c(F)c(F)c3)ccc2=O)c1)OCC1CCCC1 [Example 556, cyclopentylmethyl (3-{[4-oxo-1-(3,4,5-trifluorophenyl)-1,4-dihydropyridazin-3-yl]methyl}phenyl)carbamate] | > 7.00
21 | O=C(Nc1cccc(Cc2nn(-c3cc(F)c(F)c(F)c3)ccc2=O)c1)OCC1CCCCC1 [Example 557, cyclohexylmethyl (3-{[4-oxo-1-(3,4,5-trifluorophenyl)-1,4-dihydropyridazin-3-yl]methyl}phenyl)carbamate] | > 7.00
22 | O=C(Nc1cccc(Cc2nn(-c3cc(F)c(F)c(F)c3)ccc2=O)c1)OCC1CCOCC1 [Example 558, tetrahydro-2H-pyran-4-ylmethyl (3-{[4-oxo-1-(3,4,5-trifluorophenyl)-1,4-dihydropyridazin-3-yl]methyl}phenyl)carbamate] | > 7.00
23 | CC1(COC(=O)Nc2cccc(Cc3nn(-c4cc(F)c(F)c(F)c4)ccc3=O)c2)COC1 [Example 560, (3-methyloxetan-3-yl)methyl (3-{[4-oxo-1-(3,4,5-trifluorophenyl)-1,4-dihydropyridazin-3-yl]methyl}phenyl)carbamate] | > 7.00
24 | CN(C)C(=O)CCOC(=O)Nc1cccc(Cc2nn(-c3cc(F)c(F)c(F)c3)ccc2=O)c1 [Example 561, 3-(dimethylamino)-3-oxopropyl (3-{[4-oxo-1-(3,4,5-trifluorophenyl)-1,4-dihydropyridazin-3-yl]methyl}phenyl)carbamate] | > 7.00
25 | Cn1cc(-n2ccc(=O)c(Cc3cccc(NC(=O)OCCC(F)(F)F)c3)n2)cn1 [Example 564, 3,3,3-trifluoropropyl (3-{[1-(1-methyl-1H-pyrazol-4-yl)-4-oxo-1,4-dihydropyridazin-3-yl]methyl}phenyl)carbamate] | > 7.00
26 | Cn1cc(-n2ccc(=O)c(Cc3cccc(NC(=O)OCCC4CCOCC4)c3)n2)cn1 [Example 565, 2-(tetrahydro-2H-pyran-4-yl)ethyl (3-{[1-(1-methyl-1H-pyrazol-4-yl)-4-oxo-1,4-dihydropyridazin-3-yl]methyl}phenyl)carbamate] | > 7.00
27 | Cn1cc(-n2ccc(=O)c(Cc3cccc(NC(=O)OCCCN4CCS(=O)(=O)CC4)c3)n2)cn1 [Example 566, 3-(1,1-dioxidothio-morpholin-4-yl)propyl (3-{[1-(1-methyl-1H-pyrazol-4-yl)-4-oxo-1,4-dihydropyridazin-3-yl]methyl}phenyl)carbamate] | > 7.00
28 | Cn1cc(-n2ccc(=O)c(Cc3cccc(NC(=O)OCCN4CCS(=O)(=O)CC4)c3)n2)cn1 [Example 567, 2-(1,1-dioxidothio-morpholin-4-yl)ethyl (3-{[1-(1-methyl-1H-pyrazol-4-yl)-4-oxo-1,4-dihydropyridazin-3-yl]methyl}phenyl)carbamate] | > 7.00
29 | CCN(CC)CCCOC(=O)Nc1cccc(Cc2nn(-c3cnn(C)c3)ccc2=O)c1 [Example 571, 3-(diethylamino)propyl (3-{[1-(1-methyl-1H-pyrazol-4-yl)-4-oxo-1,4-dihydropyridazin-3-yl]methyl}phenyl)carbamate] | > 7.00
30 | Cn1cc(-n2ccc(=O)c(Cc3cccc(NC(=O)OCCCCO)c3)n2)cn1 [Example 572, 4-hydroxybutyl (3-{[1-(1-methyl-1H-pyrazol-4-yl)-4-oxo-1,4-dihydropyridazin-3-yl]methyl}phenyl)carbamate] | > 7.00
31 | COCCCOC(=O)Nc1cccc(Cc2nn(-c3cnn(C)c3)ccc2=O)c1 [Example 575, 3-methoxypropyl (3-{[1-(1-methyl-1H-pyrazol-4-yl)-4-oxo-1,4-dihydropyridazin-3-yl]methyl}phenyl)carbamate] | > 7.00
32 | Cn1cc(-n2ccc(=O)c(Cc3cccc(NC(=O)OCC(F)F)c3)n2)cn1 [Example 576, 2,2-difluoroethyl (3-{[1-(1-methyl-1H-pyrazol-4-yl)-4-oxo-1,4-dihydropyridazin-3-yl]methyl}phenyl)carbamate] | > 7.00
33 | Cn1cc(-n2ccc(=O)c(Cc3cccc(NC(=O)OCCOC4CCCCC4)c3)n2)cn1 [Example 577, 2-(cyclohexyloxy)ethyl (3-{[1-(1-methyl-1H-pyrazol-4-yl)-4-oxo-1,4-dihydropyridazin-3-yl]methyl}phenyl)carbamate] | > 7.00
